Patent publication US6329389A, “Amine compounds, their production and use” (Takeda Chemical Industries, Ltd., priority 1998, dated 2001)
Counter-ions that a name gives are not always drawn. Values belong to the molecule of their own block, whether it stands above or below them.

Experiments:
[1] = target: human somatostatin receptor protein subtype 4 (hSSTR4); assay: Binding inhibition of 125I-somatostatin-14, IC50, SSTR4 membrane fraction; details: 125I-somatostatin-14, human SSTR4 CHO cell membrane fraction, 25° C., 60 minutes
[2] = target: T1, rat somatostatin receptor protein subtype 4 (rSSTR4) (Rattus norvegicus, UniProt P30937); assay: Binding inhibition of 125I-somatostatin-14, IC50, rat SSTR4 membrane fraction; details: 125I-somatostatin-14, rat SSTR4 CHO cell membrane fraction, 25° C., 60 minutes
T1 construct: expressed in transfected cells; host or cells: CHO (dhfr-) cells, strain rSSTR4-20-25

rat astrocyte = assay: Inhibitory effect on forskolin-stimulated accumulation of cAMP in rat astrocyte; assay type: cell-based
Description: Inhibitory effect on forskolin-stimulated accumulation of cAMP in rat astrocyte
For measurement of the accumulated intracellular adenosine 3',5'-monophosphate (cAMP), newborn rat astrocytes prepared in accordance with the method of Mc carthy, K. D. et al. [Cell Biology, 85, 890-920, 1980] were proliferated in 24-well plate until they were confluent. Said cells were washed twice with 1 ml of Medium A [Dulbecco's Modified Eagle Medium (DMEM), 20 mM 2-[4-(2-hydroxyethyl)-1-piperazinyl]ethanesulfonic acid (HEPES) (pH 7.5), 0.2% bovine serum albumin and 0.2 mM 3-isobutyl-1-methylxanthine (IBMX)]. The medium A was placed in wells each in a quantity of 400 μl and incubated at 37° C. for an hour. […] The cells were washed twice with 1 ml of Medium A. 500 μl of Medium A and 100 μl of a 20% aqueous perchloric acid solution were placed in each well and left standing for20 minutes at 4° C. to lyse the cells. The lyzate was placed in an Eppendorf's tube and centrifuged (15.000 rpm, 10 minutes). The supernatant was placed in another Eppendorf's tube in quantity of 500 μl and neutralized with 60 mM of a HEPES aqueous solution containing 1.5 M of potassium chloride. The content of cAMP in this extract was determined by the Amersham kit (cAMP EIA system).

[3] = target: T2, human somatostatin receptor protein subtype 2 (SSTR2) (Homo sapiens, UniProt P30874); assay: Binding inhibition of 125I-somatostatin-14, IC50, SSTR2 membrane fraction; details: 125I-somatostatin-14, CHO cell membrane fraction, 25° C., 60 minutes
T2 construct: expressed in transfected cells; host or cells: CHO (dhfr-) cells, strain SSTR2-HS5-9

[4] = target: T3, human somatostatin receptor protein subtype 3 (SSTR3) (Homo sapiens, UniProt P32745); assay: Binding inhibition of 125I-somatostatin-14, IC50, SSTR3 membrane fraction; details: 125I-somatostatin-14, CHO cell membrane fraction, 25° C., 60 minutes
T3 construct: expressed in transfected cells; host or cells: CHO (dhfr-) cells, strain SSTR3-15-19
T3 sequence (P32745 whole entry): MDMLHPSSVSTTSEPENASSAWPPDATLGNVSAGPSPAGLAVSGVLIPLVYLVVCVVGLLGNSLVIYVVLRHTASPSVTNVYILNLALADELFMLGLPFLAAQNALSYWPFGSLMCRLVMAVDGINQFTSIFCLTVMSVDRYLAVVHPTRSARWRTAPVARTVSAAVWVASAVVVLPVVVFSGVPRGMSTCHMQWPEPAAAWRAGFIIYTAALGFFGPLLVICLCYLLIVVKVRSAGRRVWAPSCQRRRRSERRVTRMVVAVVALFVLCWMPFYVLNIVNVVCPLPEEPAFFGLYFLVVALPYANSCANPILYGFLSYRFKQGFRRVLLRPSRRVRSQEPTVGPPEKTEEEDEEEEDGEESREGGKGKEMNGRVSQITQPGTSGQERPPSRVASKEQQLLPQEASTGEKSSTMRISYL

T2 sequence (P30874 whole entry): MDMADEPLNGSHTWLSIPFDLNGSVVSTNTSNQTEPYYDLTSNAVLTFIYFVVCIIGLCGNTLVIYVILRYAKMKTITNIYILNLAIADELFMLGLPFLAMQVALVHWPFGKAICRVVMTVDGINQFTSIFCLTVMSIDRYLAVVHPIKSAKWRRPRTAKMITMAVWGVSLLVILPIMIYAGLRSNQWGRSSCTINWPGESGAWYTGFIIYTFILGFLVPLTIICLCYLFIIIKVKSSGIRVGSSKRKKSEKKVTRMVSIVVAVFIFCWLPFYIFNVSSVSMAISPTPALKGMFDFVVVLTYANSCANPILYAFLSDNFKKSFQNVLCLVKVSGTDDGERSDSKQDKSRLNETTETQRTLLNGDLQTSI
T1 sequence (P30937 whole entry): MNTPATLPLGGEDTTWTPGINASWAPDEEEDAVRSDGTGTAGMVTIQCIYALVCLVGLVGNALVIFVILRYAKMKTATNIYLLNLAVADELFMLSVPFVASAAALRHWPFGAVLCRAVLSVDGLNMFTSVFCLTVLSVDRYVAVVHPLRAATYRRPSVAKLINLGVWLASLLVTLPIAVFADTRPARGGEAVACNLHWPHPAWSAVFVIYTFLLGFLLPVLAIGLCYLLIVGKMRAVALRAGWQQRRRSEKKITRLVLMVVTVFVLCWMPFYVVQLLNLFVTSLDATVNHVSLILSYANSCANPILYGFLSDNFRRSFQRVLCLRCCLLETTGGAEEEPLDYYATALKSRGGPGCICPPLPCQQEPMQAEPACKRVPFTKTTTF

- IC50 [1]: 7 nM
- IC50 [2]: 10 nM
- agonistic effect on the rat somatostatin receptor (rat astrocyte; conclusion from cAMP test in rat astrocytes): has an agonistic effect
Molecule: O=C(CCc1nc(-c2cc3ccccc3o2)no1)N1CC(CN2CCCC2)Cc2ccccc21 (stereo not drawn) [Example 56, 1-[3-(3-(2-Benzofuranyl)-1,2,4-oxadiazol-5-yl]propanoyl]-3-(pirrolidin-1-yl)methyl-1,2,3,4-tetrahydroquinoline oxalate]
- inhibition at 0.01 µM (rat astrocyte; Astrocyte, compound 10 nM, forskolin 10 μM, rat astrocytes, 37° C., an hour, read-out: inhibition of the intracellular accumulation of cAMP at the time of stimulation by forskolin): 43%

- IC50 [3]: 3 nM
- IC50 [4]: 2 nM
Molecule: CN(C)CC1Cc2ccccc2N(C(=O)[C@@H](Cc2c[nH]c3ccccc23)NC(=O)N2CCC(n3c(=O)[nH]c4ccccc43)CC2)C1 (stereo partly drawn) [Example 89, 3-(R,S)-(N,N-Dimethylamino)methyl-1-[3-(indol-3-yl)-2-[(R)-4-(2-oxo-2,3-dihydro-1H-benzimidazol-1-yl]piperidinocarbonylamino]propanoyl]-1,2,3,4-tetrahydroquinoline]

- IC50 [3]: 9 nM
- IC50 [4]: 0.8 nM
Molecule: CN(C)CC1Cc2ccccc2N(C(=O)[C@@H](Cc2c[nH]c3ccccc23)NC(=O)N2CCN(c3ccccc3)CC2)C1 (stereo partly drawn) [Example 88, 3-(R,S)-(N,N-Dimethylamino)methyl-1-[3-(indol-3-yl)-2-[(R)-(4-phenylpiperazin-1-yl)]carbonylaminolpropanoyl]-1,2,3,4-tetrahydroquinoline]

Molecule: Somatostatin-14: Somatostatin-14, the reference peptide in the rat astrocyte cAMP test [reference compound]
- inhibition of the intracellular accumulation of cAMP at the time of stimulation by forskolin (rat astrocyte; compound 10 nM, forskolin 10 μM, rat astrocytes, 37° C., an hour): 83%
